Read-outs that look alike come from different tables or passages of the source.
Assays:
Assay type in all cases: biochemical
DYRK1A = target: T1, DYRK1A (Homo sapiens, UniProt Q13627); assay: Inhibition test on activity of DYRK family, mobility shift assay (MSA): DYRK1A
T1 construct: purchased Carna Biosciences, Inc. 04-130
Outline: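 Mobility shift assay with recombinant DYRK1A (0.2 ng/μL enzyme solution), FITC-DYRKtide substrate (4 μM in substrate mix), 100 μM ATP in substrate mix, HEPES pH 7.5 buffer with MgCl2; 1 h at room temperature. Phosphorylated vs unphosphorylated peptide peaks quantified; IC50 from regression of inhibition rate against log concentration.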

DYRK2 = target: T2, DYRK2 (Homo sapiens, UniProt Q92630); assay: Inhibition test on activity of DYRK family, mobility shift assay (MSA): DYRK2
T2 construct: purchased Carna Biosciences, Inc. 04-132
T2 sequence (Q92630 74-601 limits assumed): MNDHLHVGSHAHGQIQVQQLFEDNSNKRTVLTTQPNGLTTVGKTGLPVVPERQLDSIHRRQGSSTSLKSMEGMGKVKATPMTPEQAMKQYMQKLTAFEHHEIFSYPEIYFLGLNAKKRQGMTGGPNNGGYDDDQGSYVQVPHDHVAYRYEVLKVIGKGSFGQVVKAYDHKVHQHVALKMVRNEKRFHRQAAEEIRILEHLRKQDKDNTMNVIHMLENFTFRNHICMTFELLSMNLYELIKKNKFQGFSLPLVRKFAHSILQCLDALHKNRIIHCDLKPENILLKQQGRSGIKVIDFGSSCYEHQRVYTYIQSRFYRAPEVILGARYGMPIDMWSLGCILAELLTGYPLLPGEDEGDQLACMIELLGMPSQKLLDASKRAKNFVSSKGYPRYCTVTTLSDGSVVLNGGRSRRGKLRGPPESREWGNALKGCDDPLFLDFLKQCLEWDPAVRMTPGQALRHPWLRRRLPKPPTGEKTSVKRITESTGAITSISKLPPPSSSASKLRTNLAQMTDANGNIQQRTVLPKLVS
Outline: (§1)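 Mobility-shift readout of FITC-DYRKtide phosphorylation in 20 mM HEPES pH 7.5. The substrate mix held 4 µM peptide, 20 mM MgCl2 and ATP at 100 (1A), 200 (1B), 40 (2) or 20 µM (3). Reaction 1 h at room temperature; IC50 from regression of P/(P+S)-based inhibition vs log concentration.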

DYRK3 = target: T3, DYRK3 (Homo sapiens, UniProt O43781); assay: Inhibition test on activity of DYRK family, mobility shift assay (MSA): DYRK3
T3 construct: purchased Carna Biosciences, Inc. 04-133
T3 sequence (O43781 1-568 isoform O43781-2): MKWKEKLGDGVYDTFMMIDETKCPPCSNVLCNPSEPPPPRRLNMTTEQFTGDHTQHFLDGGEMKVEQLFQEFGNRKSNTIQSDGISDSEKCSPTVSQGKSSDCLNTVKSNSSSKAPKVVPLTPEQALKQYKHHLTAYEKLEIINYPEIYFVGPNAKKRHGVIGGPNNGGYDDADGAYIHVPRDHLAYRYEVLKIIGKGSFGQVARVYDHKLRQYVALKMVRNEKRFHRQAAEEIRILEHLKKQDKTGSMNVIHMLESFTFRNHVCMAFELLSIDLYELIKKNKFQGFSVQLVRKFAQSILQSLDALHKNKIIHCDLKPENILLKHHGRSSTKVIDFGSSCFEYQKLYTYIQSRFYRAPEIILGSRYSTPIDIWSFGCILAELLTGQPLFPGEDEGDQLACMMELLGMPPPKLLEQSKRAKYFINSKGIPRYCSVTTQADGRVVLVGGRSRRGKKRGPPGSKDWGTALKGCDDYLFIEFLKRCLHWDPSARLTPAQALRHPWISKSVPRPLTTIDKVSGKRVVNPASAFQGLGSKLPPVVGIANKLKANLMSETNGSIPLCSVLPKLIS
Outline: as §1

[1] = MSA, FITC-labeled DYRKtide peptide, ATP 100 μM, read-out: Inhibitory activity DYRK 1A (IC50 class)
[2] = MSA, FITC-labeled DYRKtide peptide, ATP 40 μM, read-out: Inhibitory activity DYRK 2 (IC50 class)
[3] = MSA, FITC-labeled DYRKtide peptide, ATP 20 μM, read-out: Inhibitory activity DYRK 3 (IC50 class)
[4] = read-out: Inhibitory activity DYRK 1A
[5] = read-out: Inhibitory activity DYRK 2
[6] = read-out: Inhibitory activity DYRK 3

| SMILES | IC50 (DYRK1A; [1]) | IC50 (DYRK2; [2]) | IC50 (DYRK3; [3]) | IC50 (DYRK1A; [4]) | IC50 (DYRK2; [5]) | IC50 (DYRK3; [6]) |
| --- | --- | --- | --- | --- | --- | --- |
| COC[C@@H]1[C@H](C)NC(=O)N1c1nc2c3c(ccc2s1)OCC3 [Example 44, (4S,5S)-1-(7,8-dihydrofuro[3,2-e][1,3]benzothiazol-2-yl)-5-(methoxymethyl)-4-methylimidazolidin-2-one] | < 10 nM | 100 to 1000 nM | 100 to 1000 nM |  |  |  |
| O=C1N[C@H]2CCNCC[C@H]2N1c1nc2c3c(ccc2s1)OCC3 [Example 45] | 10 to 100 nM | 100 to 1000 nM | 10 to 100 nM |  |  |  |
| O=C1N[C@@H]2[C@@H](CCNC23CC3)N1c1nc2c3c(ccc2s1)OCC3 [Example 46] | 10 to 100 nM | 100 to 1000 nM | 100 to 1000 nM |  |  |  |
| O=C1N[C@H]2CCNC3(CC3)[C@H]2N1c1nc2c3c(ccc2s1)OCC3 [Example 47] | 100 to 1000 nM | ≥ 1000 nM | 100 to 1000 nM |  |  |  |
| O=C1N[C@@H]2CCNC3(CC3)[C@H]2N1c1nc2c3c(ccc2s1)OCC3 [Example 48] | 10 to 100 nM | 100 to 1000 nM | 10 to 100 nM |  |  |  |
| O=C1N[C@H]2CNC[C@H](F)[C@H]2N1c1nc2c3c(ccc2s1)OCC3 [Example 49] | 10 to 100 nM | 100 to 1000 nM | 100 to 1000 nM |  |  |  |
| O=C1N[C@H]2[C@H](F)CNC[C@H]2N1c1nc2c3c(ccc2s1)OCC3 [Example 50] | 100 to 1000 nM | ≥ 1000 nM | 100 to 1000 nM |  |  |  |
| O=C1N[C@H]2CNCC[C@H]2N1c1nc2c3c(ccc2s1)OCCO3 [Example 51] | 10 to 100 nM | 100 to 1000 nM | 100 to 1000 nM |  |  |  |
| O=C1N[C@H]2CCN(C3CNC3)C[C@H]2N1c1nc2c3c(ccc2s1)OCC3 [Example 53] | 100 to 1000 nM | ≥ 1000 nM | 100 to 1000 nM |  |  |  |
| O=C1N[C@H]2CNC3(CC3)C[C@H]2N1c1nc2c3c(ccc2s1)OCC3 [Example 56] | 100 to 1000 nM | ≥ 1000 nM | 100 to 1000 nM |  |  |  |
| O=C1N[C@H]2COC[C@H]2N1c1nc2c3c(ccc2s1)OCC3 [Example 65, (3aR,6aS)-1-(7,8-dihydrofuro[3,2-e][1,3]benzothiazol-2-yl)tetrahydro-1H-furo[3,4-d]imidazol-2(3H)-one] | < 10 nM | 10 to 100 nM | 10 to 100 nM |  |  |  |
| O=C1N[C@@H]2COC[C@@H]2N1c1nc2c3c(ccc2s1)OCC3 [Example 66] | 100 to 1000 nM | ≥ 1000 nM | ≥ 1000 nM |  |  |  |
| CN1C[C@@H]2NC(=O)N(c3nc4c5c(ccc4s3)OCC5)[C@@H]2[C@@H](F)C1 [Example 74] | 100 to 1000 nM | ≥ 1000 nM | 100 to 1000 nM |  |  |  |
| CC(C)(C)OC(=O)N1CC(N2CC[C@@H]3NC(=O)N(c4nc5c6c(ccc5s4)OCC6)[C@@H]3C2)C1 [Example 82] | 10 to 100 nM | ≥ 1000 nM | ≥ 1000 nM |  |  |  |
| CN1CC(N2CC[C@@H]3NC(=O)N(c4nc5c6c(ccc5s4)OCC6)[C@@H]3C2)C1 [Example 83] | 100 to 1000 nM | ≥ 1000 nM | 100 to 1000 nM |  |  |  |
| O=C1N[C@H]2CN(C3CC3)CC[C@H]2N1c1nc2c3c(ccc2s1)OCO3 [Example 87] | 100 to 1000 nM | 100 to 1000 nM | ≥ 1000 nM |  |  |  |
| O=C1N[C@H]2CN(C3CC3)CC[C@H]2N1c1nc2c3c(ccc2s1)OCCO3 [Example 88] | 100 to 1000 nM | ≥ 1000 nM | ≥ 1000 nM |  |  |  |
| CN1C[C@@H]2NC(=O)N(c3nc4c5c(ccc4s3)OCC5)[C@@H]2CC12CC2 [Example 89] | 100 to 1000 nM | ≥ 1000 nM | ≥ 1000 nM |  |  |  |
| CN1C[C@@H]2[C@H](CC13CC3)NC(=O)N2c1nc2c3c(ccc2s1)OCC3 [Example 90] | 10 to 100 nM | 100 to 1000 nM | 100 to 1000 nM |  |  |  |
| C[C@H]1[C@H]2NC(=O)N(c3nc4c5c(ccc4s3)OCC5)C2CCN1C (stereo partly drawn) [Example 91] | 10 to 100 nM | 100 to 1000 nM | 10 to 100 nM |  |  |  |
| C[C@H]1C[C@@H]2[C@H](CN1C)NC(=O)N2c1nc2c3c(ccc2s1)OCC3 [Example 93, (3aS,6S,7aR)-1-(7,8-dihydrofuro[3,2-e][1,3]benzothiazol-2-yl)-5,6-dimethyloctahydro-2H-imidazo[4,5-c]pyridin-2-one] |  |  |  | 10 to 100 nM | ≥ 1000 nM | 100 to 1000 nM |
| C[C@H]1[C@H]2[C@@H](CCN1C)NC(=O)N2c1nc2c3c(ccc2s1)OCC3 [Example 95] |  |  |  | 100 to 1000 nM | 100 to 1000 nM | 100 to 1000 nM |
| C[C@@H]1[C@@H]2NC(=O)N(c3nc4c5c(ccc4s3)OCC5)[C@@H]2CCN1C [Example 97] |  |  |  | 100 to 1000 nM | ≥ 1000 nM | ≥ 1000 nM |

Other lines, results leading:

| IC50 (DYRK1A; [1]) | IC50 (DYRK2; [2]) | IC50 (DYRK3; [3]) | IC50 (DYRK1A; [4]) | IC50 (DYRK2; [5]) | IC50 (DYRK3; [6]) | SMILES |
| --- | --- | --- | --- | --- | --- | --- |
| 10 to 100 nM | 100 to 1000 nM | 100 to 1000 nM |  |  |  | O=C1N[C@H]2CNCCC[C@H]2N1c1nc2c3c(ccc2s1)OCO3 [Example 54] |
| 100 to 1000 nM | ≥ 1000 nM | 100 to 1000 nM |  |  |  | O=C1N[C@H]2CCCNC[C@H]2N1c1nc2c3c(ccc2s1)OCO3 [Example 55] |
| 100 to 1000 nM | ≥ 1000 nM | 100 to 1000 nM |  |  |  | O=C1N[C@H]2CC3(CC3)NC[C@H]2N1c1nc2c3c(ccc2s1)OCC3 [Example 57] |
| 100 to 1000 nM | ≥ 1000 nM | 100 to 1000 nM |  |  |  | CN1CC[C@@H]2NC(=O)N(c3nc4c5c(ccc4s3)OCC5)[C@@H]2CC1 [Example 67] |
| 100 to 1000 nM | ≥ 1000 nM | 100 to 1000 nM |  |  |  | CN1CC[C@@H]2[C@@H](NC(=O)N2c2nc3c4c(ccc3s2)OCC4)C12CC2 [Example 68] |
| 10 to 100 nM | ≥ 1000 nM | ≥ 1000 nM |  |  |  | CN1C[C@@H](F)[C@@H]2NC(=O)N(c3nc4c5c(ccc4s3)OCC5)[C@@H]2C1 [Example 75] |
| 10 to 100 nM | 100 to 1000 nM | 100 to 1000 nM |  |  |  | CN1CCC[C@@H]2[C@H](C1)NC(=O)N2c1nc2c3c(ccc2s1)OCO3 [Example 84] |
|  |  |  | 100 to 1000 nM | ≥ 1000 nM | ≥ 1000 nM | C[C@H]1C[C@H]2NC(=O)N(c3nc4c5c(ccc4s3)OCC5)C2CN1C (stereo partly drawn) [Example 92] |
|  |  |  | 100 to 1000 nM | ≥ 1000 nM | ≥ 1000 nM | C[C@H]1[C@@H]2[C@H](CCN1C)NC(=O)N2c1nc2c3c(ccc2s1)OCC3 [Example 94] |
|  |  |  | 100 to 1000 nM | ≥ 1000 nM | ≥ 1000 nM | C[C@@H]1C[C@@H]2NC(=O)N(c3nc4c5c(ccc4s3)OCC5)[C@@H]2CN1C [Example 96] |

Source: patent publication US20230365589A1, “NOVEL AMINE DERIVATIVES” (Sumitomo Pharma Co., Ltd., priority 2020, published 2023)
